Source: US9133163B2, “Dihydropyrazole GPR40 modulators” (Bristol-Myers Squibb Company, priority 2012, dated 2015)

How the values were obtained:
[1] = target: T1, hGPR40 (Homo sapiens, UniProt O14842); assay: FDSS-based intracellular calcium assay; assay type: cell-based; design: 3xFLAG; expressed in transfected cells; conditions: intracellular Ca2+ response, cells expressing GPR40
Description: FDSS-Based Intracellular Calcium Assay
Compounds are dissolved in DMSO and diluted to desired concentrations with assay buffer and added to the cells as 3× solution (20 μL per well). Run fluorescence/luminescence reader FDSS (Hamamatsu) to read intracellular Ca^2+ response.

[2] = target: T1, hGPR40; assay: GPR40 IP-One HTRF assay in HEK293/GPR40 inducible cell lines; assay type: cell-based; design: expressed in transfected cells; conditions: HEK293 cells with tetracycline-inducible human GPR40; read-out: hGPR40 IP1 EC50
Description: GPR40 IP-One HTRF Assays in HEK293/GPR40 Inducible Cell Lines
Human, mouse and rat GPR40-mediated intracellular IP-One HTRF assays were established using human embryonic kidney HEK293 cells stably transfected with a tetracycline-inducible human, mouse or rat GPR40 receptor. Cells were routinely cultured in growth medium containing DMEM (Gibco Cat. #12430-047), 10% qualified FBS (Sigma, Cat. #F2442), 200 μg/ml hygromycin (Invitrogen, Cat. #16087-010) and 1.5 μg/ml blasticidin (Invitrogen, Cat. #R210-01). About 12-15 million cells were passed into a T175 tissue culture flask (BD FALCON® 353112) with growth medium and incubated for 16-18 hours (overnight) at 370 C with 5% CO2. The next day, assay medium was exchanged with growth medium containing 1000 ng/mL of tetracycline (Fluka Analytical, Cat. #87128) to induce GPR40 expression for 18-24 hours at […] incubator with 5% CO2. After induction, the cells were washed with PBS (Gibco, Cat. #14190-036) and detached with Cell Stripper (CELLGRO®, Cat. #25-056-CL). 10-20 mL growth medium were added to the flask and cells were collected in 50 mL tubes (FALCON®, Cat. #352098) and spun at 1000 RPM for 5 minutes. Culture medium was aspirated and the cells were resuspended in 10 mL of 1× IP-One Stimulation Buffer from the Cisbio IP-One kit (Cisbio, Cat. #62IPAPEJ). The cells were diluted to 1.4×10^6 cells/mL in Stimulation Buffer.
Test compounds were 3-fold, 11-point serially diluted in DMSO in a REMP assay plate (Matrix Cat. #4307) by BIOCEL® (Agilent). The compounds were transferred into an Echo plate (LABCYTE, Cat. #LP-0200) and […] of diluted compounds were transferred to an assay plate (proxi-plate from Perkin Elmer, Cat. #6008289) by Echo acoustic nano dispenser (LABCYTE, model ECHO550). 14 μL of the diluted cells were then added to the assay plate by Thermo (SN 836 330) CombiDrop and incubated at room temperature for 45 minutes. Then 3 μL of IP1 coupled to dye D2 from the Cisbio IP-One kit were added to the assay plate followed by 3 μL of Lumi4TM-Tb cryptate K from the kit. The plate was further incubated at room for 1 hour before reading on the Envision (Perkin Elmer Model2101) with an HTRF protocol. Activation data for the test compound over a range of concentrations was plotted as percentage activation of the test compound (100%=maximum response). After correcting for background [(sample read-mean of low control)/(mean of high control−mean of low control)](low control is DMSO without any compound), EC50 values were determined. The EC50 is defined as the concentration of test compound which produces 50% of the maximal response and was quantified using the 4 parameter logistic equation to fit the data.

[3] = system: C57BL6 mice; assay: Acute oral glucose tolerance test; assay type: in vivo; conditions: % change in glucose AUC (0-180 min) from vehicle, 0.3 mg/kg oral; for Acute oral glucose tolerance: co-administered with glucose 2 g/kg
Description: Acute Oral Glucose Tolerance Test
Ten week old C57BL6 mice were housed individually and fasted for 5 hours on the day of study. Tail vein sampling was performed from nicked tails to obtain plasma samples. Baseline plasma samples were taken at t=0. Mice were orally treated with vehicle or compounds co-administered with glucose (2 g/kg). Sampling thereafter from tails of treated mice at 20, 40, 60, 120 and 180 min provided data used for generating glucose excursion curves from which 0-180 min blood glucose excursion profiles were generated. The area under the curve (AUC) allowed for assessment of glucose lowering by compound treatments. Blood samples were collected in EDTA-treated tubes (MICROVETTE® CB300, Sarstedt, Numbrecht, Germany), stored on ice and spun @ 6000 rpm for 10 minutes. Plasma glucose was analyzed on the same day using an AU680 Clinical Chemistry Analyzer (Beckman Coulter, Brea, Calif.). Statistical analysis is a one way ANOVA with Dunnett's post hoc test or two-way student's t test where appropriate. P values less than 0.05 were considered statistically significant.

T1 sequence (O14842 whole entry): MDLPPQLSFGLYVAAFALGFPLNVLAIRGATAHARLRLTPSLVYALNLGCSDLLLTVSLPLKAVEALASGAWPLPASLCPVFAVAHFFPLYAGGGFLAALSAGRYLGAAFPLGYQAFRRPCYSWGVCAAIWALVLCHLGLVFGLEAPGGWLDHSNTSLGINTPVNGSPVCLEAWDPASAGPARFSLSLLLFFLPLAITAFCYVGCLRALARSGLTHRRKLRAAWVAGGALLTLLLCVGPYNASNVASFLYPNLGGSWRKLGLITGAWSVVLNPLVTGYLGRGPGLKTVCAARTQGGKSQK

SMILES	EC50 [1]	EC50 [2]	Acute oral glucose tolerance [3]	Acute oral glucose tolerance (average of two experiments) ([3]; average of two experiments)
[2H]C([2H])([2H])Oc1cc(N2CC[C@@H](Oc3ccc(N4N=C(C(F)(F)F)[C@@H](C)[C@@H]4CC(=O)O)cc3)[C@H](C)C2)c(Cl)cn1 [Example 87, 2-((4S,5S)-1-(4-(((3R,4R)-1-(5-Chloro-2-d3-methoxypyridin-4-yl)-3-methylpiperidin-4-yl)oxy)phenyl)-4-methyl-3-(trifluoromethyl)-4,5-dihydro-1H-pyrazol-5-yl)acetic acid]	74 nM	6 nM	–	–
COc1ccc(F)c(N2CCC(Oc3ccc(N4N=C(C(F)(F)F)[C@@H](C)[C@@H]4CC(=O)O)cc3)CC2)c1 [Example 1, 2-((4S,5S)-1-(4-((1-(2-Fluoro-5-methoxyphenyl)piperidin-4-yl)oxy)phenyl)-4-methyl-3-(trifluoromethyl)-4,5-dihydro-1H-pyrazol-5-yl)acetic acid]	114 nM	17 nM	−47%	–
CCOc1ccc(F)c(N2CCC(Oc3ccc(N4N=C(C(F)(F)F)[C@@H](C)[C@@H]4CC(=O)O)cc3)C(CC(C)C)C2)c1 (single isomer, unassigned) [Example 27 (Isomer 1)]	412 nM	90 nM	–	–
COc1cc(F)c(F)c(N2CCC(Oc3ccc(N4N=C(C(F)(F)F)[C@@H](C)[C@@H]4CC(=O)O)cc3)CC2)c1 [Example 16, 2-((4S,5S)-1-(4-((1-(2,3-Difluoro-5-methoxyphenyl)piperidin-4-yl)oxy)phenyl)-4-methyl-3-(trifluoromethyl)-4,5-dihydro-1H-pyrazol-5-yl)acetic acid]	273 nM	133 nM	–	–
COc1cc(N2CCC(Oc3ccc(N4N=C(C(F)(F)F)[C@@H](C)[C@@H]4CC(=O)O)cc3)CC2)c(F)cn1 [Example 79, 2-((4S,5S)-1-(4-((1-(5-Fluoro-2-methoxypyridin-4-yl)piperidin-4-yl)oxy)phenyl)-4-methyl-3-(trifluoromethyl)-4,5-dihydro-1H-pyrazol-5-yl)acetic acid]	163 nM	94 nM	–	–
CCOc1ccc(F)c(N2CC[C@@H](Oc3ccc(N4N=C(C(F)(F)F)[C@@H](C)[C@@H]4CC(=O)O)cc3)[C@H](C)C2)c1 [Example 29, 2-((4S,5S)-1-(4-(((3R,4R)-1-(5-Ethoxy-2-fluorophenyl)-3-methylpiperidin-4-yl)oxy)phenyl)-4-methyl-3-(trifluoromethyl)-4,5-dihydro-1H-pyrazol-5-yl)acetic acid]	154 nM	11 nM	–	−52%
COc1cc(N2CCC(Oc3ccc(N4N=C(C(F)(F)F)[C@@H](C)[C@@H]4CC(=O)O)cc3)CC2)c(Cl)cn1 [Example 77, 2-((4S,5S)-1-(4-((1-(5-Chloro-2-methoxypyridin-4-yl)piperidin-4-yl)oxy)phenyl)-4-methyl-3-(trifluoromethyl)-4,5-dihydro-1H-pyrazol-5-yl)acetic acid]	110 nM	20 nM	−38%	–
CC[C@@H]1C(C(F)(F)F)=NN(c2ccc(OC3CCN(c4cc(OC)ccc4F)CC3)cc2)[C@H]1CC(=O)O (single isomer, unassigned) [Example 88, Isomer 1]	78 nM	18 nM	–	–
CCOc1ccc(F)c(N2CCC(Oc3ccc(N4N=C(C(F)(F)F)[C@@H](C)[C@@H]4CC(=O)O)cc3)C(CC(C)C)C2)c1 (single isomer, unassigned) [Example 27 (Isomer 2)]	34 nM	84 nM	–	–
CCOc1ccc(F)c(N2CCC(Oc3ccc(N4N=C(C(F)(F)F)[C@@H](C)[C@@H]4CC(=O)O)cc3)C(CC)C2)c1 (single isomer, unassigned) [Example 25 (Isomer 2)]	113 nM	21 nM	−38%	–
CCOc1cc(F)c(F)c(N2CCC(Oc3ccc(N4N=C(C(F)(F)F)[C@@H](C)[C@@H]4CC(=O)O)cc3)CC2)c1 [Example 17, 2-((4S,5S)-1-(4-((1-(5-Ethoxy-2,3-difluorophenyl)piperidin-4-yl)oxy)phenyl)-4-methyl-3-(trifluoromethyl)-4,5-dihydro-1H-pyrazol-5-yl)acetic acid]	286 nM	294 nM	–	–
COc1cccc(N2CCC(Oc3ccc(N4N=C(C(F)(F)F)[C@@H](C)[C@@H]4CC(=O)O)cc3)CC2)c1 [Example 40, 2-((4S,5S)-1-(4-((1-(3-Methoxyphenyl)piperidin-4-yl)oxy)phenyl)-4-methyl-3-(trifluoromethyl)-4,5-dihydro-1H-pyrazol-5-yl)acetic acid]	620 nM	107 nM	–	–
CCOc1ccc(F)c(N2CC[C@@H](Oc3ccc(N4N=C(c5ccc(C#N)cc5)[C@@H](CC)[C@@H]4CC(=O)O)cc3)[C@H](C)C2)c1 [Example 99, 2-((4S,5S)-3-(4-Cyanophenyl)-1-(4-(((3R,4R)-1-(5-ethoxy-2-fluorophenyl)-3-methylpiperidin-4-yl)oxy)phenyl)-4-ethyl-4,5-dihydro-1H-pyrazol-5-yl)acetic acid]	25 nM	20 nM	–	–
COc1ccc(F)c(N2CCC(Oc3ccc(N4N=C(C(F)(F)F)[C@@H](C)[C@@H]4CC(=O)O)cc3)C(F)C2)c1 (single isomer, unassigned) [Example 57 (Isomer 4)]	66 nM	11 nM	–	–
Cc1ccc(F)c(N2CCC(Oc3ccc(N4N=C(C(F)(F)F)[C@@H](C)[C@@H]4CC(=O)O)cc3)CC2)c1 [Example 36, 2-((4S,5S)-1-(4-((1-(2-Fluoro-5-methylphenyl)piperidin-4-yl)oxy)phenyl)-4-methyl-3-(trifluoromethyl)-4,5-dihydro-1H-pyrazol-5-yl)acetic acid]	440 nM	86 nM	–	–
CCc1cccc(N2CCC(Oc3ccc(N4N=C(C(F)(F)F)[C@@H](C)[C@@H]4CC(=O)O)cc3)CC2)c1 [Example 71, 2-((4S,5S)-1-(4-((1-(3-Ethylphenyl)piperidin-4-yl)oxy)phenyl)-4-methyl-3-(trifluoromethyl)-4,5-dihydro-1H-pyrazol-5-yl)acetic acid]	1180 nM	224 nM	–	–
CC(C)Oc1ccc(F)c(N2CCC(Oc3ccc(N4N=C(C(F)(F)F)[C@@H](C)[C@@H]4CC(=O)O)cc3)C(C)C2)c1 (stereo partly drawn) [Example 12, 2-((4S,5S)-1-(4-((1-(2-Fluoro-5-isopropoxyphenyl)-3-methylpiperidin-4-yl)oxy)phenyl)-4-methyl-3-(trifluoromethyl)-4,5-dihydro-1H-pyrazol-5-yl)acetic acid]	311 nM	253 nM	–	–
CCc1ccc(F)c(N2CCC(Oc3ccc(N4N=C(C(F)(F)F)[C@@H](C)[C@@H]4CC(=O)O)cc3)CC2)c1 [Example 65, 2-((4S,5S)-1-(4-((1-(5-Ethyl-2-fluorophenyl)piperidin-4-yl)oxy)phenyl)-4-methyl-3-(trifluoromethyl)-4,5-dihydro-1H-pyrazol-5-yl)acetic acid]	583 nM	297 nM	–	–
